Source: ChEMBL document CHEMBL2439977, “Discovery of novel bacterial RNA polymerase inhibitors: pharmacophore-based virtual screening and hit optimization” (J Med Chem, 2013)
Values after ≈ are worked out from the molar mass of the structure shown. Active and inactive are the calls of the source. The rule behind the calls is not given here.

Assays:
[1] = tested on: Escherichia coli; experiment: Antibacterial activity against Escherichia coli expressing TolC mutant; type: functional
[2] = Inhibition of Escherichia coli RNA polymerase by transcription assay
[3] = tested on: Bacillus subtilis; experiment: Antibacterial activity against Bacillus subtilis; type: functional
[4] = tested on: Staphylococcus aureus; experiment: Antibacterial activity against Staphylococcus aureus; type: functional
[5] = tested on: Pseudomonas aeruginosa; experiment: Antibacterial activity against Pseudomonas aeruginosa PAO1; type: functional
[6] = tested on: Escherichia coli; experiment: Antibacterial activity against Escherichia coli K-12; type: functional
[7] = tested on: Escherichia coli; experiment: Ratio of IC50 for Escherichia coli RNA polymerase core enzyme to IC50 for Escherichia coli RNA polymerase holo enzyme
[8] = Inhibition of Escherichia coli RNA polymerase core enzyme by transcription assay
[9] = Inhibition of Escherichia coli RNA polymerase holo enzyme by transcription assay
[10] = Inhibition of Escherichia coli RNA polymerase-RNA polymerase sigma factor RpoD interaction by ELISA
[11] = tested on: Escherichia coli; experiment: Inhibition of Escherichia coli RNA polymerase at 200 uM by transcription assay
[12] = tested on: Escherichia coli; experiment: Inhibition of Escherichia coli RNA polymerase at 50 uM by transcription assay
[13] = tested on: Escherichia coli; experiment: Inhibition of Escherichia coli RNA polymerase-RNA polymerase sigma factor RpoD interaction at 50 uM by ELISA
[14] = tested on: Escherichia coli; experiment: Induction of resistant frequency in Escherichia coli expressing TolC mutant at 2 times MIC treated for every 3 days; type: functional, organism-based
[15] = tested on: Escherichia coli; experiment: Inhibition of Escherichia coli RNA polymerase-RNA polymerase sigma factor RpoD interaction at 10 uM by ELISA
[16] = tested on: Escherichia coli; experiment: Inhibition of lipid synthesis in Escherichia coli expressing TolC mutant at 4 times MIC after 45 mins; type: functional, organism-based
[17] = tested on: Escherichia coli; experiment: Inhibition of RNA synthesis in Escherichia coli expressing TolC mutant at 4 times MIC after 45 mins; type: functional, organism-based
[18] = tested on: Escherichia coli; experiment: Inhibition of protein synthesis in Escherichia coli expressing TolC mutant at 4 times MIC after 45 mins; type: functional, organism-based
[19] = tested on: Escherichia coli; experiment: Inhibition of DNA synthesis in Escherichia coli expressing TolC mutant at 4 times MIC after 45 mins; type: functional, organism-based

SMILES: COc1cc(NC(=O)c2cccc(Oc3ccccc3)c2)c(C(=O)O)cc1OC
- MIC [1]: 6 µg/mL (≈ 15.3 µM)
- IC50 ([2]; read-out: IC50): 154 µM

SMILES: COc1ccc(C(=O)O)c(NC(=O)c2ccc(-c3ccccc3)cc2)c1
- MIC [1]: 9 µg/mL (≈ 25.9 µM)
- IC50 ([2]; read-out: IC50): 162 µM

SMILES: O=C(Nc1cc(Cl)ccc1C(=O)O)c1ccc(-c2ccccc2)cc1
- MIC [3]: 2 µg/mL (≈ 5.69 µM)
- MIC [4]: 24 µg/mL (≈ 68.2 µM)
- MIC [5]: > 50 µg/mL
- MIC [6]: > 50 µg/mL
- MIC [1]: 3 µg/mL (≈ 8.53 µM)
- IC50 ([2]; read-out: IC50): 37 µM

SMILES: COc1cccc(NC(=O)c2ccc(-c3ccccc3)cc2)c1C(=O)O
- MIC [1]: 58 µg/mL (≈ 167 µM)
- IC50 [2]: Not Active

SMILES: O=C(Nc1ccc(Br)cc1C(=O)O)c1cccc(Oc2ccccc2)c1
- MIC [1]: 3 µg/mL (≈ 7.28 µM)
- IC50 ([2]; read-out: IC50): 34 µM

SMILES: CCCN(CCC)S(=O)(=O)c1ccc(C(=O)Nc2cc3ccccc3cc2C(=O)O)cc1
- Ratio IC50 [7]: 2.6
- IC50 [8]: 81 µM
- IC50 [9]: 52 µM
- IC50 [10]: 97 µM

SMILES: O=C(Nc1ccc(O)cc1C(=O)O)c1ccc(-c2ccccc2)cc1
- MIC [1]: 31 µg/mL (≈ 93 µM)
- inhibition [11]: 17%

SMILES: O=C(Nc1cc(F)ccc1C(=O)O)c1ccc(-c2ccccc2)c(Oc2ccccc2)c1
- MIC [3]: > 25 µg/mL
- MIC [4]: 17 µg/mL (≈ 39.8 µM)
- MIC [5]: > 25 µg/mL
- MIC [6]: > 25 µg/mL
- MIC [1]: > 25 µg/mL
- IC50 ([2]; read-out: IC50): 13 µM

SMILES: O=C(Nc1ccccc1C(=O)O)c1ccc(-c2ccccc2)c(Oc2ccccc2)c1
- Ratio IC50 [7]: 3
- IC50 [8]: 36 µM
- IC50 [9]: 20 µM
- IC50 [10]: 41 µM
- MIC [1]: 13 µg/mL (≈ 31.8 µM)
- inhibition [11]: 100%
- IC50 ([2]; read-out: IC50): 20 µM

SMILES: O=C(Nc1cc(-c2ccccc2)ccc1C(=O)O)c1cccc(Oc2ccccc2)c1
- MIC [1]: 8 µg/mL (≈ 19.5 µM)
- IC50 ([2]; read-out: IC50): 14 µM

SMILES: N#Cc1ccc(NC(=O)c2ccc(-c3ccccc3)cc2)c(C(=O)O)c1
- MIC [1]: 7 µg/mL (≈ 20.4 µM)
- inhibition [12]: 23%

SMILES: O=C(Nc1cc(Br)ccc1C(=O)O)c1ccc(-c2ccccc2)cc1
- Ratio IC50 [7]: 3
- IC50 [8]: 39 µM
- IC50 [9]: 27 µM
- IC50 [10]: 68 µM
- MIC [1]: 2 µg/mL (≈ 5.05 µM)
- IC50 ([2]; read-out: IC50): 28 µM

SMILES: O=C(Nc1ccc(Br)cc1C(=O)O)c1cccc(Cc2ccccc2)c1
- MIC [1]: 2 µg/mL (≈ 4.87 µM)
- IC50 ([2]; read-out: IC50): 37 µM

SMILES: O=C(Nc1cc(F)ccc1C(=O)O)c1ccc(-c2ccccc2)cc1
- MIC [1]: 4 µg/mL (≈ 11.9 µM)
- IC50 ([2]; read-out: IC50): 98 µM

SMILES: COc1ccc(NC(=O)c2ccc(-c3ccccc3)cc2)c(C(=O)O)c1
- MIC [1]: 8 µg/mL (≈ 23 µM)
- inhibition [11]: 52%

SMILES: O=C(Nc1c(Cl)cccc1C(=O)O)c1ccc(-c2ccccc2)cc1
- MIC [1]: 55 µg/mL (≈ 156 µM)
- IC50 [2]: Not Active

SMILES: O=C(Nc1cccc(F)c1C(=O)O)c1ccc(-c2ccccc2)cc1
- MIC [1]: 34 µg/mL (≈ 101 µM)
- inhibition [11]: 14%

SMILES: O=C(Nc1ccc(F)cc1C(=O)O)c1cccc(Oc2ccccc2)c1
- MIC [3]: 4 µg/mL (≈ 11.4 µM)
- MIC [4]: 48 µg/mL (≈ 137 µM)
- MIC [5]: > 100 µg/mL
- MIC [6]: > 100 µg/mL
- MIC [1]: 5 µg/mL (≈ 14.2 µM)
- IC50 ([2]; read-out: IC50): 98 µM

SMILES: O=C(Nc1ccc(F)cc1C(=O)O)c1ccc(-c2ccccc2)cc1
- MIC [1]: 7 µg/mL (≈ 20.9 µM)
- IC50 ([2]; read-out: IC50): 138 µM

SMILES: O=C(Nc1cc(Cl)ccc1C(=O)O)c1ccc(-c2ccccc2)c(Oc2ccccc2)c1
- Ratio IC50 [7]: 2.9
- IC50 [8]: 12 µM
- IC50 [9]: 7 µM
- IC50 [10]: 33 µM
- MIC [1]: > 25 µg/mL
- IC50 ([2]; read-out: IC50): 9 µM

SMILES: O=C(Nc1ccccc1C(=O)O)c1ccccc1
- MIC [1]: > 100 µg/mL
- IC50 [2]: Not Active

SMILES: O=C(Nc1ccc(OC(F)(F)F)cc1C(=O)O)c1ccc(-c2ccccc2)cc1
- MIC [1]: 4 µg/mL (≈ 9.97 µM)
- IC50 ([2]; read-out: IC50): 31 µM

SMILES: O=C(Nc1cc(C(F)(F)F)ccc1C(=O)O)c1ccc(-c2ccccc2)cc1
- MIC [1]: 5 µg/mL (≈ 13 µM)
- IC50 ([2]; read-out: IC50): 27 µM

SMILES: O=C(Nc1cccc(Cl)c1C(=O)O)c1ccc(-c2ccccc2)cc1
- inhibition [13]: < 10%
- MIC [1]: 57 µg/mL (≈ 162 µM)
- IC50 [2]: Not Active

SMILES: CO[C@H]1/C=C/O[C@@]2(C)Oc3c(C)c(O)c4c(O)c(c(/C=N/N5CCN(C)CC5)c(O)c4c3C2=O)NC(=O)/C(C)=C\C=C\[C@H](C)[C@H](O)[C@@H](C)[C@@H](O)[C@@H](C)[C@H](OC(C)=O)[C@@H]1C [RIFAMPIN]
- Activity [14]: Active
- MIC [3]: 5 µg/mL (≈ 6.08 µM)
- MIC [4]: 0.02 µg/mL (≈ 0.0243 µM)
- MIC [5]: 13 µg/mL (≈ 15.8 µM)
- MIC [6]: 7 µg/mL (≈ 8.51 µM)
- Ratio IC50 [7]: 1
- IC50 [8]: 0.016 µM
- IC50 [9]: 0.027 µM
- inhibition [15]: < 5%
- MIC [1]: 10 µg/mL (≈ 12.2 µM)
- IC50 ([2]; read-out: IC50): 0.03 µM

SMILES: O=C(Nc1ccc(Br)cc1C(=O)O)c1ccc(-c2ccccc2)cc1
- MIC [1]: 3 µg/mL (≈ 7.57 µM)
- IC50 ([2]; read-out: IC50): 31 µM

SMILES: COc1cc(NC(=O)c2ccc(-c3ccccc3)cc2)c(C(=O)O)cc1OC
- MIC [1]: 19 µg/mL (≈ 50.3 µM)
- inhibition [11]: 35%

SMILES: C=CCN1C(=O)/C(=C/c2ccc(-c3cccc(C(=O)O)c3)o2)SC1=S
- Ratio IC50 [7]: 2.6
- IC50 [8]: 57 µM
- IC50 [9]: 38 µM
- IC50 [10]: 30 µM

SMILES: O=C(Nc1cc([N+](=O)[O-])ccc1C(=O)O)c1ccc(-c2ccccc2)cc1
- MIC [1]: > 25 µg/mL
- IC50 ([2]; read-out: IC50): 36 µM

SMILES: Cc1ccc(NC(=O)c2ccc(-c3ccccc3)cc2)c(C(=O)O)c1
- MIC [1]: 7 µg/mL (≈ 21.1 µM)
- IC50 ([2]; read-out: IC50): 139 µM

SMILES: O=C(Nc1ccccc1C(=O)O)c1cccc(Oc2ccccc2)c1
- MIC [1]: 9 µg/mL (≈ 27 µM)
- inhibition [11]: 23%

SMILES: O=C(Nc1cc(Br)ccc1C(=O)O)c1cccc(Oc2ccccc2)c1
- MIC [3]: 3 µg/mL (≈ 7.28 µM)
- MIC [4]: 8 µg/mL (≈ 19.4 µM)
- MIC [5]: > 25 µg/mL
- MIC [6]: > 25 µg/mL
- MIC [1]: 3 µg/mL (≈ 7.28 µM)
- IC50 ([2]; read-out: IC50): 34 µM

SMILES: O=C(Nc1ccccc1C(=O)O)c1ccc(-c2ccccc2)cc1
- MIC [1]: 13 µg/mL (≈ 41 µM)
- inhibition [11]: 31%

SMILES: O=C(Nc1ccc(C(F)(F)F)cc1C(=O)O)c1ccc(-c2ccccc2)cc1
- Activity [14]: Active
- MIC [3]: 4 µg/mL (≈ 10.4 µM)
- MIC [4]: 5 µg/mL (≈ 13 µM)
- MIC [5]: > 50 µg/mL
- MIC [6]: > 50 µg/mL
- Ratio IC50 [7]: 4
- IC50 [8]: 67 µM
- IC50 [9]: 28 µM
- IC50 [10]: 60 µM
- MIC [1]: 2 µg/mL (≈ 5.19 µM)
- IC50 ([2]; read-out: IC50): 28 µM

SMILES: O=C(Nc1ccc(Cl)cc1C(=O)O)c1ccc(-c2ccccc2)cc1
- MIC [1]: 2 µg/mL (≈ 5.69 µM)
- IC50 ([2]; read-out: IC50): 46 µM

SMILES: O=C(Nc1cc(Cl)ccc1C(=O)O)c1cccc(Oc2ccccc2)c1
- MIC [3]: 3 µg/mL (≈ 8.16 µM)
- MIC [4]: 14 µg/mL (≈ 38.1 µM)
- MIC [5]: > 50 µg/mL
- MIC [6]: > 50 µg/mL
- MIC [1]: 3 µg/mL (≈ 8.16 µM)
- IC50 ([2]; read-out: IC50): 44 µM

SMILES: CCCC/C(C)=C/C=C(\C)C(=O)c1c(O)cc([C@H](C)CC/C=C/NC(=O)OC)oc1=O [MYXOPYRONIN B]
- MIC [3]: 0.9 µg/mL (≈ 2.09 µM)
- MIC [4]: 0.5 µg/mL (≈ 1.16 µM)
- MIC [5]: > 25 µg/mL
- MIC [6]: > 25 µg/mL
- MIC [1]: 1 µg/mL (≈ 2.32 µM)
- IC50 ([2]; read-out: IC50): 0.35 µM

SMILES: O=C(Nc1ccc(-c2ccccc2)cc1C(=O)O)c1cccc(Oc2ccccc2)c1
- Activity [14]: Active
- inhibition [16]: inactive
- inhibition [17]: inactive
- inhibition [18]: inactive
- inhibition [19]: inactive
- MIC [3]: 3 µg/mL (≈ 7.33 µM)
- MIC [4]: 6 µg/mL (≈ 14.7 µM)
- MIC [5]: > 25 µg/mL
- MIC [6]: > 25 µg/mL
- Ratio IC50 [7]: 2.8
- IC50 [8]: 27 µM
- IC50 [9]: 16 µM
- IC50 [10]: 47 µM
- MIC [1]: 2 µg/mL (≈ 4.88 µM)
- IC50 ([2]; read-out: IC50): 13 µM
